Experimental data as given in patent US5753516A, “Screening method for ligands of the EBI-1 receptor” (priority 1995, dated 1998).
Entries after “also recorded” stand apart in the source; their conditions may differ. Read-outs that look alike come from different tables or passages of the source.

How the values were obtained:
[1] = tested on: NALM 6 cells; test: Light scatter analysis of morphological response of NALM 6 cells; assay type: cell-based, human
Procedure: FIG. 2, Panels A and B. Methionine-enkephalin induces a morphological change in NALM 6 cells. […] Analysis of forward and right angle light scatter was performed using a Becton Dickinson FACS SCAN flow cytometer as described (Sklar et al., 1984). Histograms of light scatter were obtained by analyzing 10,000 cells per sample. Data are expressed as mean channel number (y-axis) vs concentration of MET-ENK (x-axis).
Forward and right angle light scatter analysis of the morphological response to MET-ENK: The effect of MET-ENK on cell morphology were measured using flow cytometric analysis of forward and right angle light scatter as previously described (Sklar et al., 1984). For these studies 10^6 cells were resuspended in one-ml of PBS, activated by the addition of MET-ENK or maintained in the PBS buffer alone, and then, incubated for 5 minutes at 37° C. […] Samples were analyzed on a Becton Dickinson FACS SCAN flow cytometer with excitation at 488 nm (Sklar et al., 1984). Histograms of light scattering were obtained by analyzing 10,000 cells for each sample. Data analysis was performed using the Lysys System software package.

[2] = tested on: LAZ 388 cells; test: Flow cytometry of surface molecule expression on LAZ 388 cells; assay type: cell-based, human
Procedure: Immunofluorescence Staining and Flow Cytometric Analysis of Cell Surface Molecules: Cells were resuspended at 1×10^6 /ml in PBS and then incubated for periods of 5 to 120 minutes at 37° C. with MET-ENK at doses of 0 to 10^-5 M. Incubations were terminated by transferring samples to an ice bath and then pelleting the cells by centrifugation at 1800 rpm for 5 minutes at 4° C.
Immunofluorescence staining was carried out in 4-ml tubes maintained in an ice water bath. […] Cells were subsequently fixed within a 2% solution of formalin and maintained in the dark at 10° C. until analyzed.
Flow cytometric analysis was performed using a FACS SCAN Flow Cytometer (Becton Dickinson, Mountain View, Calif.) equipped with a HP9000 Series computer and the Lysys System software analysis package. Data were collected as histograms depicting the fluorescence intensity for 5,000 to 10,000 cells per sample.
The non-binding IgG1 MOPC myeloma protein, anti-macrophage/monocyte specific CD14 (MO2; IgG2) and anti-T cell specific CD3 (OKT3; IgG2a) mAb were employed as nonreactive controls for measuring the autofluorescence of B cells.

[3] = tested on: Jurkat cells; test: [Ca^2+ ]i response of Jurkat cells (Indo-1, flow cytometry); assay type: cell-based, human
Procedure: FIG. 14, Panel A and B. Methionine enkephalin and opiate receptor agonists selective for […] stimulate transmembrane signaling in Jurkat cells. Cells were labeled with Indo-1, washed twice in serum-free medium and held at 4° C. until analyzed. Indo-1 fluorescence was measured using flow cytometry as previously described (Heagy et al., 1992; Ledbetter et al., 1987; Chang et al., 1989; Rabinovitch et al., 1986). The fluorescence for nonstimulated cells (measured in medium, alone) was arbitrarily set at 1.0. Data are presented as per cent increase in the response [(r-baseline) x 100%]. Baseline [Ca^2+ ]i value measured for Jurkat cells (n=4) was 80±40 nM. Baseline Panel A, Jurkat cell response to MET-ENK (0.1 nM, 10 nM and 1 μM) and to the d- selective agonist Dermenkephalin (10 nM). Panel B, Jurkat cell response to the d- selective agonist (D-Pen ^2,5, p Cl-Phe^4)-ENK (0.1 nM. 10 nM. 1 μM).
The inventors (Heagy et al., 1992) have previously shown that when applied to NALM 6 cells the κ-1 agonist U69,953 stimulates a rapid increase in [Ca^2+ ]i. […] In order to determine whether the sites the inventors have identified using the δ-selective agonists also elicit Ca^2+ responses the inventors measured the effects of opioid peptides and δ-selective agonists on the calcium response. […] These studies provide evidence that Jurkat cells have functional δ opiate receptor sites which stimulate transmembrane signaling via rapid increases in [Ca^2+ ]i.

[4] = tested on: NALM 6 cells; test: [Ca^2+ ]i response of NALM 6 / leukemia cells (Indo-1, flow cytometry); assay type: cell-based, human
Procedure: FIG. 15, Panels A-C. […] Cells were labeled with Indo-1 as previously described (Rabinovitch et al., 1986), washed twice in serum-free medium and held at 4° C. until flow cytometric analysis. The violet/blue fluorescence ratio was measured using previously described methods (Rabinovitch et al., 1986). Nonstimulated cells (measured in medium, alone) were used to establish a relative violet/blue ratio arbitrarily set at 1.0 as previously described (Rabinovitch). Calibration of [Ca^2+ ]i was carried out as previously described by Rabinovitch et al (1986) using the formula: [formula]
Rmax values were determined by measuring the maximum shift in indo violet/blue fluorescence for cells treated with 4 μM ionomycin. Rmin was measured as the minimum ratio for the violet blue fluorescence of ionomycin treated cells following the addition of 8 mM EGTA. […] The Kd (effective dissociation constant) was set at 250 nM.

[5] = tested on: NALM 6 cells; test: cAMP accumulation in NALM 6 cells; assay type: cell-based, human; details: forskolin-activated NALM 6
Procedure: FIG. 16. […] NALM 6 cells (2×10^6 /ml) were stimulated with forskolin or forskolin+MET-ENK at the concentrations indicated and in the presence of 1 mM isobutyl-1-methylxanthine. Cyclic AMP was assayed after 15 minutes at 37° C. Data are expressed as fmoles of cAMP/minute. Samples were processed as previously described Cobb, Heagy, Dunner et al., 1980; cAMP was measured using a commercial RIA kit.

[6] = tested on: human T cells; details: Heagy et al., 1990; cited from earlier work
[7] = tested on: PBMC; details: cited from earlier work
[8] = tested on: T cells; details: literature; cited from earlier work
[9] = tested on: lymphocytes; details: infusion into afferent lymphatics, sheep; cited from earlier work
[10] = tested on: NK cells and lymphocytes; details: literature; cited from earlier work
[11] = LAZ 388, 10^-7 M MET-ENK, untreated 1.0
[12] = LAZ 388, 10^-7 M MET-ENK, untreated 11.4

CSCC[C@H](NC(=O)[C@H](Cc1ccccc1)NC(=O)CNC(=O)CNC(=O)[C@@H](N)Cc1ccc(O)cc1)C(=O)O [MET-ENK, Tyr-Gly-Gly-Phe-Met]
morphological response (light scatter) of NALM 6 cells ([1]; 5 minutes at 37° C.): increase in light scatter (right angle and forward) | lowest MET-ENK concentration causing morphological response ([1]; NALM 6): 0.01 nM | time of exposure for morphological response ([1]; NALM 6): ≤ 5 minutes | CD11a, CD18, CD54 expression, MET-ENK treated vs not ([2]; LAZ 388): equivalent for the MET-ENK-treated (+) and nontreated (-) cells | CD2 (LFA-2) fluorescence ratio [2, 11]: 0.9 | CD49b (VLA-α2 chain) fluorescence ratio [2, 11]: 1.0 | VLA-3 fluorescence ratio [2, 11]: 1.0 | VLA-5 fluorescence ratio [2, 11]: 1.0 | CD72 fluorescence ratio ([2]; LAZ 388, 10^-7 M MET-ENK, untreated 1.4): 1.7 | CD11b (Mac 1) fluorescence ratio ([2]; LAZ 388, 10^-7 M MET-ENK, untreated 1.5): 1.5 | CD20 fluorescence ratio ([2]; LAZ 388, 10^-7 M MET-ENK, untreated 1.7): 1.7 | VLA-1 fluorescence ratio ([2]; LAZ 388, 10^-7 M MET-ENK, untreated 1.8): 2.0 | CD19 fluorescence ratio ([2]; LAZ 388, 10^-7 M MET-ENK, untreated 8.6): 8.0 | CD22 fluorescence ratio [2, 12]: 11.1 | CD29 (VLA-β chain) fluorescence ratio [2, 12]: 11.2 | VLA-β; DE9N fluorescence ratio ([2]; LAZ 388, 10^-7 M MET-ENK, untreated 11.5): 11.1 | CD18 (Integrin β chain) fluorescence ratio ([2]; LAZ 388, 10^-7 M MET-ENK, untreated 11.9): 10.1 | CD11a (LF1α) fluorescence ratio ([2]; LAZ 388, 10^-7 M MET-ENK, untreated 12.4): 11.4 | CD54 (ICAM-1) fluorescence ratio ([2]; LAZ 388, 10^-7 M MET-ENK, untreated 18.7): 16.6 | CD58 (LFA-3) fluorescence ratio ([2]; LAZ 388, 10^-7 M MET-ENK, untreated 22.4): 21.8 | CD45 (T200) fluorescence ratio ([2]; LAZ 388, 10^-7 M MET-ENK, untreated 27.4): 27.3 | CD23 fluorescence ratio ([2]; LAZ 388, 10^-7 M MET-ENK, untreated 68.2): 70.7 | CD44 (homing receptor) fluorescence ratio ([2]; LAZ 388, 10^-7 M MET-ENK, untreated 79.0): 84.6 | [Ca^2+ ]i response [3]: elicited a rapid rise in [Ca^2+ ]i | [Ca^2+ ]i response [4]: rapid rise in the concentration of free intracellular Ca2+; also recorded: rapid rise in [Ca^2+ ]i | [Ca^2+ ]i response ([4]; listed as methionine-enkephalin): concentration dependent rise in [Ca^2+ ]i | cAMP production in NALM 6 cells [5]: enhancement in the production of cAMP | cAMP production in NALM 6 cells ([5]; listed as Methionine-enkephalin): potentiates cAMP accumulation | human T cell migration [6]: potent stimulants for the migration of isolated human T cells | blastogenic responses to T and B cell lectins ([7]; PBMC): augment the blastogenic responses of PBMC to both T and B cell lectins | IFN-γ production ([7]; lectin stimulated PBMC): enhance IFN-γ production | T cell aggregation, rosetting, morphology, adhesion molecules [8]: enhance T cell aggregation | lymphocyte exit from popliteal nodes [9]: stimulated small and blast lymphocytes to exit the node and enter the efferent lymph | NK cell activity, lymphocyte proliferation, antibody production [10]: diminish NK cell activity, decrease lymphocyte proliferation, and inhibit antibody production
